The text below walks through data of the supplement of paper PMC10307832.

Holding throughout (assay): relative viability (nuclei count vs DMSO), 5 days (fraction); higher = more cells survive
Compound in assay [1]: CC1=C(CC(=O)O)c2cc(F)ccc2/C1=C\c1ccc([S+](C)[O-])cc1 [Sulindac] + CS(=O)(=O)CCNCc1ccc(-c2ccc3ncnc(Nc4ccc(OCc5cccc(F)c5)c(Cl)c4)c3c2)o1 [Lapatinib] (partner 2 µM)
Summed up: (§1)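 Lung cancer cell lines in 1536-well plates got either a single drug or a fixed anchor-drug dose together with five library-drug doses (not always all listed) in √10 steps, by pin tool, on the day after seeding. Nuclei were counted after 5 days, and relative viability is the treated-to-vehicle ratio of nuclei counts. Values are medians of duplicate plates.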

Compound in assay [2]: CC1=C(CC(=O)O)c2cc(F)ccc2/C1=C\c1ccc([S+](C)[O-])cc1 [Sulindac] + NC(=O)Nc1cc(-c2cccc(F)c2)sc1C(=O)N[C@H]1CCCNC1 [AZD7762] (partner 0.2 µM)
An outline of the steps:
as §1

Compound in assay [3]: O=c1[nH]cc(F)c(=O)[nH]1 [5-Fluorouracil] + CC(=O)Nc1cccc(-n2c(=O)n(C3CC3)c(=O)c3c(Nc4ccc(I)cc4F)n(C)c(=O)c(C)c32)c1 [Trametinib] (partner 0.02 µM)
An outline of the steps:
as §1

Compound in assay [4]: O=c1[nH]cc(F)c(=O)[nH]1 [5-Fluorouracil] + O=C(c1cc(Cc2n[nH]c(=O)c3ccccc23)ccc1F)N1CCN(C(=O)C2CC2)CC1 [Olaparib] (partner 8 µM)
Summed up:
as §1

Turning to NCI-H3122, the relative viability in assay [1] (first compound 0.08 µM) is 1.05; in assay [1] (first compound 0.253 µM), 0.978; in assay [1] (first compound 0.8 µM) it was 1.03; in assay [1] (first compound 2.53 µM), 0.966; in assay [1] (first compound 8 µM), 1.03; in assay [2] (first compound 0.08 µM), 1.2. Further, the relative viability in assay [2] (first compound 0.253 µM) was found to be 1.08; in assay [2] (first compound 0.8 µM) it was 1.01; in assay [2] (first compound 2.53 µM) it was 0.968; in assay [2] (first compound 8 µM) it was 0.947; in assay [3] (first compound 0.02 µM), 0.232; in assay [3] (first compound 0.2 µM), 0.296. The relative viability stood at 0.187 in assay [3] (first compound 0.6325 µM); 0.176 in assay [3] (first compound 2 µM); 0.51 in assay [4] (first compound 0.02 µM); 0.542 in assay [4] (first compound 0.2 µM); 0.299 in assay [4] (first compound 0.6325 µM); 0.216 in assay [4] (first compound 2 µM).
Regarding PC-3 [JPC-3], the relative viability in assay [1] (first compound 0.08 µM) is 0.476; in assay [1] (first compound 0.253 µM), 0.453; in assay [1] (first compound 0.8 µM) it was 0.422; in assay [1] (first compound 2.53 µM) it was 0.457; in assay [1] (first compound 8 µM) it was 0.449; in assay [2] (first compound 0.08 µM) it was 0.855. Besides, the relative viability came to 0.805 in assay [2] (first compound 0.253 µM); 0.697 in assay [2] (first compound 0.8 µM); 0.715 in assay [2] (first compound 2.53 µM); 1.06 in assay [2] (first compound 8 µM); 0.784 in assay [3] (first compound 0.02 µM); 0.823 in assay [3] (first compound 0.2 µM). Moreover, the relative viability in assay [3] (first compound 0.6325 µM) is 0.782; in assay [3] (first compound 2 µM), 0.661; in assay [4] (first compound 0.02 µM), 1.17; in assay [4] (first compound 0.2 µM), 1.14; in assay [4] (first compound 0.6325 µM) it was 1.09; in assay [4] (first compound 2 µM), 0.912.
Turning to PC-14, the relative viability was 0.349 in assay [1] (first compound 0.08 µM); 0.379 in assay [1] (first compound 0.253 µM); 0.315 in assay [1] (first compound 0.8 µM); 0.276 in assay [1] (first compound 2.53 µM); 0.311 in assay [1] (first compound 8 µM); 0.377 in assay [2] (first compound 0.08 µM). Also, the relative viability turned out to be 0.315 in assay [2] (first compound 0.253 µM); 0.35 in assay [2] (first compound 0.8 µM); 0.284 in assay [2] (first compound 2.53 µM); 0.364 in assay [2] (first compound 8 µM); 0.837 in assay [3] (first compound 0.02 µM); 0.734 in assay [3] (first compound 0.2 µM). Also, the relative viability was determined as 0.81 in assay [3] (first compound 0.6325 µM); 0.456 in assay [3] (first compound 2 µM); 0.277 in assay [4] (first compound 0.02 µM); 0.265 in assay [4] (first compound 0.2 µM); 0.304 in assay [4] (first compound 0.6325 µM); 0.179 in assay [4] (first compound 2 µM).
Take RERF-LC-KJ: the relative viability in assay [1] (first compound 0.08 µM) stood at 0.888; in assay [1] (first compound 0.253 µM), 0.934; in assay [1] (first compound 0.8 µM), 0.685; in assay [1] (first compound 2.53 µM), 0.862; in assay [1] (first compound 8 µM), 0.943; in assay [2] (first compound 0.08 µM), 1.41. Moreover, the relative viability in assay [2] (first compound 0.253 µM) worked out at 1.18; in assay [2] (first compound 0.8 µM), 0.632; in assay [2] (first compound 2.53 µM), 0.993; in assay [2] (first compound 8 µM), 1.05; in assay [3] (first compound 0.02 µM), 0.949; in assay [3] (first compound 0.2 µM), 0.811. The relative viability was 0.838 in assay [3] (first compound 0.6325 µM); 0.7 in assay [3] (first compound 2 µM); 0.985 in assay [4] (first compound 0.02 µM); 0.829 in assay [4] (first compound 0.2 µM); 0.878 in assay [4] (first compound 0.6325 µM); 0.763 in assay [4] (first compound 2 µM).
